{"source": "paper PMC5938390", "about": "“Tachyplesin Causes Membrane Instability That Kills Multidrug-Resistant Bacteria by Inhibiting the 3-Ketoacyl Carrier Protein Reductase FabG” (Frontiers in Microbiology, 2018)", "molecules": {"B1": {"name": "tachyplesin III (peptide)", "peptide": "KWCFRVCYRGICYRKCR", "modifications": "disulfide 7-12, 3-16; ends not checked", "notes": "tachyplesin III, cationic beta-hairpin antimicrobial peptide from horseshoe crab hemocytes; 17 residues; Coupled to the CM5 chip through amines in the SPR; source: synthetic peptide (purity ≥ 95%, synthesized by GL Biochem Co., Ltd, Shanghai, China)"}}, "key": {"[1]": {"test_system": "E. coli 513", "assay": "Transcriptome analysis (RNA sequencing, FPKM, DESeq)", "assay_type": "cell-based, Escherichia coli", "conditions": "Ec, Ta 16 μg/ml or Lvf 32 μg/ml, 30 min, 37°C", "procedure": "(§1) The Vitek 32 system (bioMerieux, France) and 16S rDNA sequencing were used to verify the clinical isolates A. baumannii 1408, P. aeruginosa 1409, Klebsiella pneumoniae 5 and E. coli 513, which were grown overnight in Luria-Bertani (LB) medium at 37°C with constant shaking at 220 rpm to reach the middle of their logarithmic growth phase. […] After the addition of 2 volumes of RNAprotect Bacteria Reagent (QIAGEN) to stabilized RNA, samples were vortexed for 5 s, incubated for 5 min at room temperature (15–25°C) and collected by centrifugation at 4°C for 5 min at 4000 g.\n(§2) RNA isolation and sequencing were performed by Novogene Bioinformatics Technology Co., Ltd. (Beijing, China) as previously described ([Liu B. et al., 2014]). Clean reads were mapped to the corresponding bacterial genomes using Bowtie 2 software ([Langmead and Salzberg, 2012]). Gene expression was calculated using the FPKM (expected number of fragments per kilobase of transcript sequence per millions of base pairs sequenced) method with HTSeq software (union model) ([Anders et al., 2015]). Differentially expressed genes were selected based on the DESeq R package with Padj values < 0.05 ([Anders and Huber, 2010]). KEGG pathway analysis was performed using KOBAS (2.0), and the corrected p value cut-off was set at 0.05 ([Li et al., 2015])."}, "[2]": {"test_system": "P. aeruginosa strain 1409", "assay": "Membrane rupture by propidium iodide staining", "assay_type": "cell-based, Pseudomonas aeruginosa", "conditions": "LB medium, 25°C, 1 h, then PI 10 μg/ml 30 min", "procedure": "These studies were carried out as we previously reported with slight modifications and briefly introduced as follows ([Liu et al., 2017]). […] Cytotoxicity in different cell lines was assessed using the Cell Proliferation Kit II (XTT) (Roche), and cytotoxicity in hemocytes was evaluated by the increase in the absorbance at 540 nm after peptide incubation. Membrane rupture was indicated by the entrance of the DNA-binding fluorescent dye PI into MDR clinical isolates of P. aeruginosa strain 1409. Membrane translocation of N-terminal FITC-conjugated tachyplesin III (purity ≥ 95%, synthesized by GL Biochem Co., Ltd, Shanghai, China) into MDR clinical isolates of Acinetobacter baumannii strain 1408 were detected by confocal laser-scanning microscopy.\nAfter centrifugation at 3000 g for 10 min, cells were resuspended in the same volume of PBS (phosphate-buffered saline, 8 g/L NaCl, 0.2 g/L KCl, 1.44 g/L Na2HPO4, 0.24 g/L KH2PO4, pH 7.4). Then, PI was added to a final concentration of 10 μg/ml. After 30 min of incubation at 25°C, the cells were washed three times with PBS and immediately imaged with a fluorescence microscope."}, "[3]": {"test_system": "K. pneumoniae 5", "assay": "Transcriptome analysis (RNA sequencing, FPKM, DESeq)", "assay_type": "cell-based, Klebsiella pneumoniae", "conditions": "Kp, Ta 16 μg/ml or Lvf 32 μg/ml, 30 min, 37°C", "procedure": "as §1, §2"}, "[4]": {"test_system": "E. coli 513", "assay": "MIC against clinical isolate", "assay_type": "cell-based, Escherichia coli"}, "[5]": {"test_system": "P. aeruginosa 1409", "assay_type": "cell-based, Pseudomonas aeruginosa", "conditions": "Pa, Ta 16 μg/ml or Lvf 32 μg/ml, 30 min, 37°C", "procedure": "as §1, §2"}, "[6]": {"test_system": "A. baumannii 1408", "assay": "MIC against MDR clinical isolate", "assay_type": "cell-based, Acinetobacter baumannii"}, "[7]": {"test_system": "P. aeruginosa 1409", "assay": "MIC against MDR clinical isolate", "assay_type": "cell-based, Pseudomonas aeruginosa"}, "[8]": {"test_system": "A. baumannii 1408", "assay": "Transcriptome analysis (RNA sequencing, FPKM, DESeq)", "assay_type": "cell-based, Acinetobacter baumannii", "conditions": "Ab, Ta 16 μg/ml or Lvf 32 μg/ml, 30 min, 37°C", "procedure": "as §1, §2"}, "[9]": {"test_system": "K. pneumoniae 5", "assay": "MIC against clinical isolate", "assay_type": "cell-based, Klebsiella pneumoniae"}, "[10]": {"molecular_target": "T1, 3-ketoacyl carrier protein reductase FabG from E. coli (E. coli, UniProt P0AEK2 1-244)", "T1 construct": "FabG, 3-ketoacyl-acyl carrier protein reductase, E. coli; cloned into the NcoI and XhoI sites of pET28a; also called 3-ketoacyl-acyl carrier protein reductase; β-ketoacyl-acyl carrier protein (ACP) reductase FabG; source: E. coli BL21 DE3 (pET28a), purified with Ni resin", "T1 sequence": "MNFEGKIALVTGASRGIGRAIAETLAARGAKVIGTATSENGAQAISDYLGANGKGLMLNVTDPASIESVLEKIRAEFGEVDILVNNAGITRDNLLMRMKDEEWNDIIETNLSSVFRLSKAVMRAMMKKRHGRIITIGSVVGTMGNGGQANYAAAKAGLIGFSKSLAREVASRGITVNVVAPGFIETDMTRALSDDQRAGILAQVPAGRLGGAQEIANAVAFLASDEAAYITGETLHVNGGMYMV", "assay": "SPR; tachyplesin III amine-coupled to a CM5 chip (approximately 1000 resonance units); FabG (1.25, 2.5, 5, 10 μg/mL) in HBS-N running buffer injected at 20 μl/min for 6 min; Biacore 3000; 1:1 Langmuir binding model", "conditions": "both partners purified"}}, "note": "Positions of bridges follow the written chain, without caps; N, C: chain ends. No end group written: not given here.", "data": [{"molecule": "C[C@H]1COc2c(N3CCN(C)CC3)c(F)cc3c(=O)c(C(=O)O)cn1c23", "note": "[levofloxacin]", "values": [{"measurement": "FPKM of gene b1943", "setting": "[1]; control 0", "result": 0}, {"measurement": "FPKM of gene b1815", "setting": "[1]; control 22.7313", "result": 15.6958}, {"measurement": "FPKM of gene b0242", "setting": "[1]; control 40.7621", "result": 43.1933}, {"measurement": "FPKM of gene b2495", "setting": "[1]; control 62.5019", "result": 46.4771}, {"measurement": "FPKM of gene b4004", "setting": "[1]; control 64.6122", "result": 63.7219}, {"measurement": "FPKM of gene b3846 (3-hydroxyacyl-CoA dehydrogenase)", "setting": "[1]; control 97", "result": 94}, {"measurement": "FPKM of gene b1093 (3-ketoacyl-acyl carrier protein reductase)", "setting": "[1]; control 633", "result": 627}, {"measurement": "readcount of gene b0001 in treated sample", "setting": "[1]; differential analysis", "result": 28.7713}, {"measurement": "readcount of gene b0002 in treated sample", "setting": "[1]; differential analysis", "result": 277.558}, {"measurement": "readcount of gene b0003 in treated sample", "setting": "[1]; differential analysis", "result": 192.091}, {"measurement": "readcount of gene b0004 in treated sample", "setting": "[1]; differential analysis", "result": 222.554}, {"measurement": "readcount of gene b0005 in treated sample", "setting": "[1]; differential analysis", "result": 14.3856}, {"measurement": "membrane integrity (PI fluorescence)", "setting": "[2]; 1/4× MIC", "result": "did not affect the integrity of bacterial membranes"}, {"measurement": "membrane integrity (PI fluorescence)", "setting": "[2]; 4× MIC (high concentration)", "result": "some of the bacterial membranes were broken slightly"}, {"measurement": "FPKM of gene KPNJ2_01473", "setting": "[3]; control 0", "result": 1.282}, {"measurement": "FPKM of gene KPNJ2_01064", "setting": "[3]; control 3.68216", "result": 0}, {"measurement": "FPKM of gene KPNJ2_04725", "setting": "[3]; control 22.8601", "result": 21.9489}, {"measurement": "FPKM of gene KPNJ2_03426 (3-ketoacyl-acyl carrier protein reductase)", "setting": "[3]; control 41.4", "result": 80.6}, {"measurement": "FPKM of gene KPNJ2_01584 (Enoyl-CoA hydratase)", "setting": "[3]; control 128", "result": 190}, {"measurement": "FPKM of gene KPNJ2_04200", "setting": "[3]; control 4040.19", "result": 4507.07}, {"measurement": "readcount of gene KPNJ2_00001 in treated sample", "setting": "[3]; differential analysis", "result": 119.391}, {"measurement": "readcount of gene KPNJ2_00002 in treated sample", "setting": "[3]; differential analysis", "result": 95.8073}, {"measurement": "readcount of gene KPNJ2_00003 in treated sample", "setting": "[3]; differential analysis", "result": 27.2682}, {"measurement": "readcount of gene KPNJ2_00004 in treated sample", "setting": "[3]; differential analysis", "result": 368.489}, {"measurement": "readcount of gene KPNJ2_00005 in treated sample", "setting": "[3]; differential analysis", "result": 375.122}, {"measurement": "32 μg/ml levofloxacin expressed as multiple of MIC", "setting": "[4]", "result": 1, "unit": "× MIC"}, {"measurement": "FPKM of gene PADK2_26395", "setting": "[5]; control 7.76041", "result": 10.0809}, {"measurement": "FPKM of gene PADK2_02440", "setting": "[5]; control 10.8663", "result": 14.499}, {"measurement": "FPKM of gene PADK2_25635", "setting": "[5]; control 48.5098", "result": 42.4346}, {"measurement": "FPKM of gene PADK2_02970", "setting": "[5]; control 53.0528", "result": 66.953}, {"measurement": "FPKM of gene PADK2_25405 (3-ketoacyl-acyl carrier protein reductase)", "setting": "[5]; control 56", "result": 43}, {"measurement": "FPKM of gene PADK2_17500", "setting": "[5]; control 97.7062", "result": 119.076}, {"measurement": "FPKM of gene PADK2_09275 (3-hydroxyacyl-CoA dehydrogenase)", "setting": "[5]; control 361", "result": 369}, {"measurement": "readcount of gene Novel00001 in treated sample", "setting": "[5]; differential analysis", "result": 77.24}, {"measurement": "readcount of gene Novel00002 in treated sample", "setting": "[5]; differential analysis", "result": 21.4195}, {"measurement": "readcount of gene Novel00003 in treated sample", "setting": "[5]; differential analysis", "result": 79.1872}, {"measurement": "readcount of gene Novel00004 in treated sample", "setting": "[5]; differential analysis", "result": 104.501}, {"measurement": "readcount of gene Novel00005 in treated sample", "setting": "[5]; differential analysis", "result": 85.0289}, {"measurement": "32 μg/ml levofloxacin expressed as multiple of MIC", "setting": "[6]", "result": 1, "unit": "× MIC"}, {"measurement": "32 μg/ml levofloxacin expressed as multiple of MIC", "setting": "[7]; P. aeruginosa 1409", "result": 2, "unit": "× MIC"}, {"measurement": "1/4× MIC", "setting": "[7]; P. aeruginosa strain 1409", "result": 4, "unit": "µg/mL"}, {"measurement": "4× MIC", "setting": "[7]; P. aeruginosa strain 1409", "result": 64, "unit": "µg/mL"}, {"measurement": "FPKM of gene A1S_1815", "setting": "[8]; control 0", "result": 0}, {"measurement": "FPKM of gene Novel00132", "setting": "[8]; control 18.2658", "result": 8.387}, {"measurement": "FPKM of gene A1S_0707", "setting": "[8]; control 51.3724", "result": 62.4914}, {"measurement": "FPKM of gene A1S_2182", "setting": "[8]; control 136.449", "result": 191.991}, {"measurement": "FPKM of gene A1S_2061 (3-ketoacyl-acyl carrier protein reductase)", "setting": "[8]; control 323", "result": 328}, {"measurement": "FPKM of gene A1S_1368", "setting": "[8]; control 2030.48", "result": 1961.71}, {"measurement": "readcount of gene A1S_0001 in treated sample", "setting": "[8]; differential analysis", "result": 246.119}, {"measurement": "readcount of gene A1S_0002 in treated sample", "setting": "[8]; differential analysis", "result": 308.109}, {"measurement": "readcount of gene A1S_0003 in treated sample", "setting": "[8]; differential analysis", "result": 33.1432}, {"measurement": "readcount of gene A1S_0004 in treated sample", "setting": "[8]; differential analysis", "result": 622.97}, {"measurement": "32 μg/ml levofloxacin expressed as multiple of MIC", "setting": "[9]", "result": 2, "unit": "× MIC"}]}, {"molecule": "B1", "values": [{"measurement": "binding result", "setting": "[10]", "result": "binds"}]}]}
